Measured values published in PMC10976160, “Comparative Pharmacokinetics Research of 13 Bioactive Components of Jieyu Pills in Control and Attention Deficit Hyperactivity Disorder Model Rats Based on UPLC-Orbitrap Fusion MS” (Molecules, 2024).
Where two headings read alike, the source gives them in different places.

Tests used:
[1] = Pharmacokinetics in ADHD model rats after gavage of JYPs; format: in vivo, SHR rats (ADHD model); conditions: for AUC(0-inf) / AUC(0-t) / Cmax / Tmax / half-life / MRT last / MRT inf: male, SHR, rat, plasma; for MRT last: read-out: MRT(0-t); for MRT inf: read-out: MRT(0-∞); for peak time: oral JYPs
Protocol: Based on the established analytical method for plasma samples, a pharmacokinetic study was conducted on 13 constituents in the plasma of ADHD model rats after gavage of JYPs (Figure 3). The linearity of ln(AUC0-t)–ln(dose) and ln(Cmax)–ln(dose) was analyzed in the same way.
For the control experiment, healthy male Sprague Dawley (SD) rats of SPF grade ([…] ± 20 g) were purchased from Sipeifu (Beijing) Biotechnology Co., Ltd. (Beijing, China), Animal Quality Certificate No. 110324220102348616. For the ADHD model rats, healthy male SHR rats of SPF grade, weighing 220 ± 20 g, were purchased from SBF (Beijing) Biotechnology Co., Ltd. (Beijing, China), License No. SCXK (Yu) 2019-0010. The animals were accommodated in the Animal Center of Henan University of Traditional Chinese Medicine, which successfully underwent an ethical audit with ethics number DWLL202208003. The animals were bred under controlled conditions at a temperature of 24 °C and a relative humidity of 50 ± 2%. Before the experiment, the animals abstained from eating for 12 h and had unrestricted access to water. The feeding and experimental research conducted on the experimental animals adhered to the laws outlined in the Management of Experimental Animals in Henan Province.
JYPs were ground into a fine powder and sieved through 60-mesh sieves; then, 20 g of fine JYP powder was taken, having been weighed precisely. A precise volume of 50 mL of pure water was added and mixed well to prepare a 0.4 g/mL suspension solution of JYPs, which was then stored in the refrigerator at 4 °C.
This study involved 24 healthy male SD rats with a body mass of 220 ± 20 g and 24 healthy male ADHD rats with a body mass of 220 ± 20 g. Subjects abstained from food for a duration of 12 h before the experiment and consumed water without restriction. Both kinds of rats were randomly divided into four groups: a blank group, given an equal dose of water intragastrically, and 3 different administration groups: rats given the equivalent human dose of JYPs by gavage in doses of 1.080 g/kg/d, 2.160 g/kg/d, and 4.320 g/kg/d. Tail vein blood was collected at 0.083, 0.25, 0.5, 0.75, 1, 1.5, 2, 3, 4, 6, 8, 12, 18, and 24 h after dosing. About 0.5 mL of blood was collected in sodium heparin centrifugal tubes, then centrifuged at 4 °C for 10 min at a speed of 3500r/min. We took the upper layer and placed it at −80 °C for preservation.
We took 200 μL of plasma, added 600 μL of methanol solution and 50 μL of internal standard (100 ng/mL), and subjected it to shaking for 5 min, followed by centrifugation at 4 °C at 12,000 r/min for 10 min. The supernatant was collected and allowed to dry, then reconstituted with 50 μL of 50% methanol and centrifuged at 4 °C at 14,000 r/min for a further 10 min. The supernatant after this process was taken as the test solution. A volume of 5 μL was used for UPLC-MS analysis. The drug concentration in plasma was calculated with the aid of the internal standard.
Chromatographic conditions: Hypersil GOLD (100 × 2.1 mm, 1.9 μm) column; column temperature 35 °C; mobile phase acetonitrile (A)/0.1% formic acid aqueous solution (B); gradient elution; gradient elution program: 0–0.5 min (95% B–95% B), 0.5–8 min (95% B–50% B), 8–14 min (50% B–20% B), 14–20 min (20% B–5% B), 20–22 min (5% B–5% B), 22–25 min (95% B–95% B); flow rate 0.2 mL/min; injection volume 5 μL. The ion source was electrospray ionization (ESI), with positive and negative ion mode spray voltages of 3.50 and 3.0 kV, an ion transfer tube temperature of 300 °C, nitrogen as the carrier gas, a sheath gas pressure of 35 arb, an auxiliary gas pressure of 8 arb, and an auxiliary heater temperature of 275 °C.

[2] = parameters: method as in PMID 32135035; conditions: rats, oral dosing; cited from earlier work
[3] = ADHD model rats, oral JYPs high dose 4.320 g/kg/d (3rd of 3 values)
[4] = ADHD model rats, oral JYPs low dose 1.080 g/kg/d (1st of 3 values)
[5] = ADHD model rats, oral JYPs medium dose 2.160 g/kg/d (2nd of 3 values)
[6] = 1.08 g/kg/day, ADHD model rats, oral JYPs low dose 1.080 g/kg/d (1st of 3 values)
[7] = 2.16 g/kg/day, ADHD model rats, oral JYPs medium dose 2.160 g/kg/d (2nd of 3 values)
[8] = 4.32 g/kg/day, ADHD model rats, oral JYPs high dose 4.320 g/kg/d (3rd of 3 values)

Row | Compound | AUMC(0-t) [1, 3] | AUMC(0-ꝏ) [1, 3] | AUMC(0-t) [1, 4] | AUMC(0-ꝏ) [1, 4] | AUMC(0-t) [1, 5] | AUMC(0-ꝏ) [1, 5] | AUC(0-inf) [1, 6] [ng·h/mL] | AUC(0-t) [1, 6] [ng·h/mL] | Cmax [1, 6] [ng/mL] | Tmax [1, 6] [h] | half-life [1, 6] [h] | MRT last [1, 6] [h] | MRT inf [1, 6] [h] | AUC(0-inf) [1, 7] [ng·h/mL] | AUC(0-t) [1, 7] [ng·h/mL] | Cmax [1, 7] [ng/mL] | Tmax [1, 7] [h] | MRT last [1, 7] [h] | MRT inf [1, 7] [h] | AUC(0-inf) [1, 8] [ng·h/mL] | further results
1 | CCC/C=C1\OC(=O)C2=C1CCC=C2 [Z-Ligustilide] | 458.69± 201.28 ng/mL*(h)² | 1348.99± 756.73 ng/mL*(h)² | 322.64± 100.23 ng/mL*(h)² | 870.35± 311.46 ng/mL*(h)² | 383.83± 150.84 ng/mL*(h)² | 1224.58± 657.13 ng/mL*(h)² | 49.3 ± 14.7 | 36.7 ± 18.2 | 4.07 ± 1.85 | 1.67 ± 1.21 | 12.8 ± 3.2 | 8.9 ± 1.12 | 17.9 ± 4.8 | 62.2 ± 24.5 | 44.7 ± 18.2 | 5.57 ± 2.26 | 1.13 ± 0.44 | 8.72 ± 0.8 | 20 ± 7.8 | 69.7 ± 27.1 | t1/2 [1, 5]: 14.63 ± 7.18 h; AUC(0-t) [1, 8]: 49.5 ± 16.8 ng·h/mL; Cmax [1, 8]: 6.63 ± 1.78 ng/mL; Tmax [1, 8]: 0.96 ± 0.1 h; half-life [1, 8]: 12.5 ± 3.72 h; MRT last [1, 8]: 8.9 ± 1.5 h; MRT inf [1, 8]: 18 ± 5 h; oral bioavailability [2]: relatively poor
2 | C[C@H]1O[C@@H](O[C@H]2CC[C@@]3(C)[C@@H](CC[C@]4(C)[C@@H]3C=C[C@]35OC[C@@]6(CCC(C)(C)C[C@H]63)[C@H](O)C[C@]54C)[C@]2(C)CO)[C@H](O)[C@@H](O[C@@H]2O[C@H](CO)[C@@H](O)[C@H](O)[C@H]2O)[C@H]1O [Saikosaponin D] | 1294.18± 361.60 ng/mL*(h)² | 3035.93± 850.28 ng/mL*(h)² | 761.68± 201.22 ng/mL*(h)² | 2701.81± 992.13 ng/mL*(h)² | 1149.72± 377.93 ng/mL*(h)² | 3004.18± 2085.30 ng/mL*(h)² | 132 ± 32.3 | 91.3 ± 24.6 | 22.6 ± 2.41 | 0.58 ± 0.13 | 15 ± 5.9 | 8.43 ± 0.96 | 20.3 ± 5.6 | 188 ± 55.2 | 145 ± 32.8 | 33.1 ± 3.36 | 0.54 ± 0.25 | 7.8 ± 1.36 | 14.8 ± 6.52 | 201 ± 50 | peak time ([1]; ADHD model rats): less than 1 h; Clearances [1, 3]: 3506.08 ± 856.33 mL/h; Vss [1, 3]: 53202.65 ± 17657.23 mL; Clearances [1, 4]: 1343.52 ± 399.07 mL/h; Vss [1, 4]: 26784.08 ± 8767.24 mL; Clearances [1, 5]: 1952.91 ± 715.40 mL/h; Vss [1, 5]: 26532.70 ± 7619.14 mL; MRT, model rats compared with control rats ([1]; high-dose): higher; half-life [1, 7]: 10.6 ± 4.96 h; AUC(0-t) [1, 8]: 156 ± 38.6 ng·h/mL; Cmax [1, 8]: 41.5 ± 12.4 ng/mL; Tmax [1, 8]: 0.38 ± 0.14 h; half-life [1, 8]: 10.3 ± 2.55 h; MRT last [1, 8]: 8.26 ± 0.54 h; MRT inf [1, 8]: 15.2 ± 2.75 h; AUC, ADHD model rats compared with control rats ([1]; medium- and high-dose): higher
3 | C[C@H]1O[C@@H](O[C@H]2CC[C@@]3(C)[C@@H](CC[C@]4(C)[C@@H]3C=C[C@]35OC[C@@]6(CCC(C)(C)C[C@H]63)[C@@H](O)C[C@]54C)[C@]2(C)CO)[C@H](O)[C@@H](O[C@@H]2O[C@H](CO)[C@@H](O)[C@H](O)[C@H]2O)[C@H]1O [Saikosaponin A] | 2395.92± 288.80 ng/mL*(h)² | 5783.46± 3073.92 ng/mL*(h)² | 1392.40± 460.59 ng/mL*(h)² | 4853.64± 3957.39 ng/mL*(h)² | 1937.54± 771.89 ng/mL*(h)² | 5558.75± 2961.42 ng/mL*(h)² | 233 ± 91.2 | 164 ± 57.5 | 40.9 ± 22.9 | 0.5 ± 0.16 | 13.3 ± 7.06 | 8.75 ± 1.6 | 19.4 ± 9.93 | 324 ± 131 | 240 ± 96.6 | 53 ± 19.2 | 0.79 ± 0.19 | 8.13 ± 1.23 | 16.8 ± 3.55 | 387 ± 78.7 | peak time ([1]; ADHD model rats): less than 1 h; Clearances [1, 3]: 2855.71 ± 621.15 mL/h; Vss [1, 3]: 40360.07 ± 12917.92 mL; Clearances [1, 4]: 1291.22 ± 525.61 mL/h; Vss [1, 4]: 23782.60 ± 13625.69 mL; Vss [1, 5]: 35282.72 ± 25449.21 mL; MRT(0-t), ADHD rats compared with control rats ([1]; all concentrations): significantly higher; AUC(0-t), model rats compared with control rats ([1]; high-dose administration group): significantly greater; half-life [1, 7]: 12.2 ± 2.82 h; AUC(0-t) [1, 8]: 307 ± 55.6 ng·h/mL; Cmax [1, 8]: 73.1 ± 22.6 ng/mL; Tmax [1, 8]: 0.58 ± 0.13 h; half-life [1, 8]: 10.3 ± 4.24 h; MRT last [1, 8]: 7.95 ± 1.2 h; MRT inf [1, 8]: 14.5 ± 5.42 h
